From the OligoGym collection come the findings set out here.

In the series the target is SNHG14. To be noted: ASO.
The mark [1] stands for this setting: Mouse Primary Neuronal Cell, 0.005 µM.

After the bases stand the sugars from the 5' end (letter, count) and the backbone: PS all phosphorothioate, else s phosphorothioate and o phosphodiester by linkage. Methylation of C is not given here. l = locked nucleic acid (LNA); d = 2'-deoxy (DNA)

As to CATATTGAACCAATTC (sugars l4 d10 l2, PS), the target mRNA inhibition is, setting by setting: (Human Neuronal Cell, 0.2 µM) 51%; (Human Neuronal Cell, 1 µM) 67%.
As for “TACACTTAATTATACTTCCA (sugars ldlddllddddddlddddll, PS)”, under “Human Neuronal Cell, 7.5 µM”, the target mRNA inhibition is 59%.
For the sequence “TTATAGCCATTCTATCT (sugars ldlldddddddldddll, PS)”, the target mRNA inhibition (Human Neuronal Cell, 7.5 µM) is 43%.
In the case of “ATTTACACTTAATTATACTT (sugars ldllddlddddddlllldll, PS)”, the target mRNA inhibition (Human Neuronal Cell, 7.5 µM) is 12%.
In the case of CTCTCCTCAAGATCAA (sugars l3 d10 l3, PS), the target mRNA inhibition (Human Neuronal Cell, 0.2 µM) is 37% and the target mRNA inhibition (Human Neuronal Cell, 1 µM) came out at 49%.
Consider “GATCATTCTCAACAATTA (sugars l2 d3 l1 d6 l6, PS)”, for which the target mRNA inhibition (Human Neuronal Cell, 7.5 µM) came out at 33%.
Same read-out and setting: in the case of “TTCTACTATACTTTCCTCT (sugars ldldddddddddlddddll, PS)” it was 59%.
TTCAAGAATTCTCTCC (sugars l2 d10 l4, PS): the target mRNA inhibition (Human Neuronal Cell, 0.2 µM) was 46% and the target mRNA inhibition (Human Neuronal Cell, 1 µM) amounted to 50%.
Consider “TACCTACATCTCATACTT (sugars l4 d12 l2, PS)”, for which the target mRNA inhibition by setting is: (Human Neuronal Cell, 0.2 µM) -19%; (Human Neuronal Cell, 1 µM) 3%; (Human Neuronal Cell, 5 µM) 7%; under setting [1], 94.8%.
Consider “CCTACATCTCATACTTGC (sugars l2 d14 l2, PS)”, for which the target mRNA inhibition was found to be 4% (Human Neuronal Cell, 0.2 µM); 21% (Human Neuronal Cell, 1 µM); 25% (Human Neuronal Cell, 5 µM); 92.2% under setting [1].
On to TCATATTGAACCAATT (sugars l4 d10 l2, PS), for which the target mRNA inhibition reads like this: (Human Neuronal Cell, 0.2 µM) 59%; (Human Neuronal Cell, 1 µM) 71%.
For “TTTATCAATATCTTCTCACT (sugars ldddddddddddddldldll, PS)”, the target mRNA inhibition (Human Neuronal Cell, 7.5 µM) was found to be 53%.
On to “TCTTTCCATTTATTTCCATT (sugars l2 d3 l1 d11 l3, PS)”, for which the target mRNA inhibition (Human Neuronal Cell, 7.5 µM) was 56%.
For ACATCTCATACTTGCT (sugars l2 d11 l3, PS), the target mRNA inhibition under setting [1] was 96.3%.
On to “CAGCTTTTAACCAGAGTGGC (sugars l1 d17 l2, PS)”, for which the target mRNA inhibition (Human Neuronal Cell, 7.5 µM) came to 40%.
As to “GCACATTCTTTCTATAC (sugars l3 d11 l3, PS)”, the target mRNA inhibition reads like this: (Human Neuronal Cell, 0.2 µM) 39%; (Human Neuronal Cell, 1 µM) 59%.
The corresponding values for “CATTATATTTAAACTATCA (sugars l4 d13 l2, PS)” are 8% and 15%.
For the sequence “ATATCCCTTGATTATCC (sugars l3 d11 l3, PS)”, the target mRNA inhibition (Human Neuronal Cell, 0.2 µM) was determined as 16% and the target mRNA inhibition (Human Neuronal Cell, 1 µM) was 18%.
In the case of “TTTATACCTTTCTTTAACCC (sugars l1 d12 l1 d4 l2, PS)”, the target mRNA inhibition (Human Neuronal Cell, 7.5 µM) turned out to be 17%.
Turning to “TTACCTACATCTCATACTT (sugars l2 d15 l2, PS)”, the target mRNA inhibition runs as follows: (Human Neuronal Cell, 0.2 µM) -5%; (Human Neuronal Cell, 1 µM) -7%; (Human Neuronal Cell, 5 µM) 7%; under setting [1], 79%.
On to “GTTCTACTATACTTTCCT (sugars l1 d4 l1 d9 l3, PS)”, for which the target mRNA inhibition (Human Neuronal Cell, 7.5 µM) worked out at 57%.
On the same count and under the same terms, with “TTATTTCCATTTATTTTCA (sugars lddlldddddddldldlll, PS)” the figure was 69%.
With “ATTTCATTAAGTCACCC (sugars l3 d11 l3, PS)”, the target mRNA inhibition is, setting by setting: (Human Neuronal Cell, 0.2 µM) 51%; (Human Neuronal Cell, 1 µM) 53%.
With “CAACATTATTAACCACCTT (sugars lldlldddddddddldlll, PS)”, the target mRNA inhibition (Human Neuronal Cell, 7.5 µM) came out at 49%.
On to “TTATAGCCATTCTATCT (sugars lddldddddddldddll, PS)”, for which, where the note is “Human Neuronal Cell, 7.5 µM”, the target mRNA inhibition was 36%.
The same measure, in the same setting: in the case of “TTTTTTCTTACTATCTTCAA (sugars llldddlddddddddlddll, PS)” it was 58%.
Take “TACATCTCATACTTGCT (sugars l2 d11 l4, PS)”: the target mRNA inhibition was -18% (Human Neuronal Cell, 0.2 µM); 2% (Human Neuronal Cell, 1 µM); 18% (Human Neuronal Cell, 5 µM); 95% under setting [1].
On to CAGCCATAAACTATAT (sugars l4 d10 l2, PS), for which the target mRNA inhibition (Human Neuronal Cell, 0.2 µM) was determined as 15% and the target mRNA inhibition (Human Neuronal Cell, 1 µM) worked out at 7%.
On to “TTATAGCCATTCTATCT (sugars lddllddddddldldll, PS)”, for which the target mRNA inhibition (Human Neuronal Cell, 7.5 µM) came out at 15%.
In the case of “CACAATCAACAACAAATA (sugars l4 d12 l2, PS)”, the target mRNA inhibition runs as follows: (Human Neuronal Cell, 0.2 µM) 40%; (Human Neuronal Cell, 1 µM) 54%.
For “TTCTGTTTCCATTTACA (sugars l4 d11 l2, PS)”, the target mRNA inhibition runs as follows: (Human Neuronal Cell, 0.2 µM) 43%; (Human Neuronal Cell, 1 µM) 39%.
Turning to “TTTATCAATATCTTCTCACT (sugars lddddlddddddddddldll, PS)”, where the note is “Human Neuronal Cell, 7.5 µM”, the target mRNA inhibition amounted to 68%.
On the same count and under the same terms, in the case of “TGAAAATCTCAACTACCAT (sugars lddldlddddddldddlll, PS)” it was 19%; in that of “TTTATACCTTTCTTTAACCC (sugars l1 d14 l2 d1 l2, PS)”, 63%.
“TTCCAGCTTATTTACCT (sugars l3 d12 l2, PS)”: the target mRNA inhibition is, setting by setting: (Human Neuronal Cell, 0.2 µM) 41%; (Human Neuronal Cell, 1 µM) 26%.
With “TTATAGCCATTCTATCT (sugars ldldlddddddldddll, PS)”, the target mRNA inhibition (Human Neuronal Cell, 7.5 µM) came to 47%.
CCTTCCCTTTGATAAC (sugars l3 d11 l2, PS): the target mRNA inhibition runs as follows: (Human Neuronal Cell, 0.2 µM) 28%; (Human Neuronal Cell, 1 µM) 55%.
In the case of TCTCAAAGATCATTCT (sugars l4 d10 l2, PS), the target mRNA inhibition (Human Neuronal Cell, 0.2 µM) is 54% and the target mRNA inhibition (Human Neuronal Cell, 1 µM) is 62%.
With “TTGCTTCCAATTTATTT (sugars l4 d11 l2, PS)”, the target mRNA inhibition was 25% (Human Neuronal Cell, 0.2 µM) and 44% (Human Neuronal Cell, 1 µM).
Turning to “CTGTTTATACCCTTTCCA (sugars l1 d2 l1 d12 l2, PS)”, the target mRNA inhibition (Human Neuronal Cell, 7.5 µM) was 56%.
In the case of “GATCATTCTCAACAATTA (sugars l2 d1 l2 d10 l3, PS)”, under “Human Neuronal Cell, 7.5 µM”, the target mRNA inhibition was determined as 57%.
Consider “TCTTTGACATTCCATCTC (sugars l4 d12 l2, PS)”, for which the target mRNA inhibition runs as follows: (Human Neuronal Cell, 0.2 µM) 49%; (Human Neuronal Cell, 1 µM) 56%.
Consider “ATTTTTTTCTTACTATCTTC (sugars ldddddlddddddldddlll, PS)”, for which the target mRNA inhibition (Human Neuronal Cell, 7.5 µM) came out at 43%.
Turning to “TTATAGCCATTCTATCT (sugars lldddddddddldldll, PS)”, the target mRNA inhibition (Human Neuronal Cell, 7.5 µM) was found to be 56%.
For the sequence “TCCATTTATTTCCATTTAT (sugars ldldlldddddddldddll, PS)”, the target mRNA inhibition (Human Neuronal Cell, 7.5 µM) amounted to 55%.
Consider “TTTTTATACCTTTCTTTAAC (sugars ldllddddddddddlldlll, PS)”, for which the target mRNA inhibition (Human Neuronal Cell, 7.5 µM) worked out at 57%.
Turning to “ATATTGATTCAATTCCC (sugars l1 d1 l2 d8 l5, PS)”, the target mRNA inhibition (Human Neuronal Cell, 7.5 µM) came out at 64%.
On to “TTACACTTAATTATACTTCC (sugars lddlldldddddddddddll, PS)”, for which, for the setting “Human Neuronal Cell, 7.5 µM”, the target mRNA inhibition was found to be 68%.
For the sequence “TCTGTATACACCATCCC (sugars l1 d11 l1 d2 l2, PS)”, the target mRNA inhibition (Human Neuronal Cell, 7.5 µM) came to 54%.
As to “CAACATTATTAACCACCTTA (sugars llddlddddddddddldlll, PS)”, the target mRNA inhibition (Human Neuronal Cell, 7.5 µM) was determined as 47%.
On to CTCCAACATAGATCCT (sugars l3 d10 l3, PS), for which the target mRNA inhibition was 44% (Human Neuronal Cell, 0.2 µM) and 54% (Human Neuronal Cell, 1 µM).
Turning to “AGTTCTACTATACTTTC (sugars llddlddddddldllll, PS)”, the target mRNA inhibition (Human Neuronal Cell, 7.5 µM) turned out to be 18%.
Turning to “GATCATTCTCAACAATTAA (sugars lldddlddddddlldllll, PS)”, the target mRNA inhibition (Human Neuronal Cell, 7.5 µM) was found to be 39%.
Regarding “TTCTACTAAACATACAC (sugars l3 d11 l3, PS)”, the target mRNA inhibition (Human Neuronal Cell, 0.2 µM) was 40% and the target mRNA inhibition (Human Neuronal Cell, 1 µM) is 49%.
With “TTATAGCCATTCTATCT (sugars ldddldddddddlddll, PS)”, under “Human Neuronal Cell, 7.5 µM”, the target mRNA inhibition amounted to 31%.
With ACAACTATTATCTTCT (sugars l3 d10 l3, PS), the target mRNA inhibition is, setting by setting: (Human Neuronal Cell, 0.2 µM) 40%; (Human Neuronal Cell, 1 µM) 57%.
As to “ATCATTCTCAACAATTAA (sugars l4 d8 l1 d1 l4, PS)”, the target mRNA inhibition (Human Neuronal Cell, 7.5 µM) is 53%.
Regarding “TTTATACCTTTCTTTAACCC (sugars lddldddddddddlddddll, PS)”, the target mRNA inhibition (Human Neuronal Cell, 7.5 µM) was found to be 53%.
As for “AAAATTATTTATACACCATC (sugars lldddldddddddldlllll, PS)”, the target mRNA inhibition (Human Neuronal Cell, 7.5 µM) is 55%.
Still for that read-out and setting: with “AGATCATTCTCAACAATT (sugars l2 d1 l3 d10 l2, PS)” the figure was 46%; with “TGTTTATACCCTTTCCAA (sugars lldldlddddddldddll, PS)”, 54%.
As to “ACTCTGCAATACACCAA (sugars llddlddddddldldll, PS)”, where the note is “Human Neuronal Cell, 7.5 µM”, the target mRNA inhibition stood at 33%.
As to “TTATAGCCATTCTATCT (sugars l2 d11 l1 d1 l2, PS)”, the target mRNA inhibition (Human Neuronal Cell, 7.5 µM) came to 56%.
As to “TGTTTCCATCTACTATTA (sugars lddddlddddddddldll, PS)”, the target mRNA inhibition (Human Neuronal Cell, 7.5 µM) came out at 62%.
As to “CCTTTAGCATTTCTATT (sugars l2 d11 l4, PS)”, the target mRNA inhibition (Human Neuronal Cell, 0.2 µM) is 38% and the target mRNA inhibition (Human Neuronal Cell, 1 µM) came to 59%.
As for “TAAAATTATTTATACACCA (sugars l2 d3 l1 d7 l6, PS)”, the target mRNA inhibition (Human Neuronal Cell, 7.5 µM) was determined as 47%.
On the same count and under the same terms, in the case of “CAAAGATCATTCTCAACA (sugars l3 d1 l2 d10 l2, PS)” it was 61%; in that of “AAAATCTCAACTACCATTT (sugars l6 d7 l2 d2 l2, PS)”, 41%.
With “TTATACCTTTCTTTAACCCT (sugars l1 d5 l1 d11 l2, PS)”, the target mRNA inhibition (Human Neuronal Cell, 7.5 µM) came out at 59%.
As to “GTTCTACTATACTTTCCT (sugars lddldldddddddlddll, PS)”, the target mRNA inhibition (Human Neuronal Cell, 7.5 µM) amounted to 55%.
Turning to “TACTCTGCAATACACC (sugars l2 d2 l1 d9 l2, PS)”, the target mRNA inhibition (Human Neuronal Cell, 7.5 µM) stood at 61%.
Turning to “TCACTTTCCAGATATCA (sugars l4 d11 l2, PS)”, the target mRNA inhibition runs as follows: (Human Neuronal Cell, 0.2 µM) 17%; (Human Neuronal Cell, 1 µM) 5%; (Human Neuronal Cell, 5 µM) 15%; under setting [1], 92%.
On to “TACACTTAATTATACTTCCA (sugars lldldlddddddddddddll, PS)”, for which the target mRNA inhibition (Human Neuronal Cell, 7.5 µM) is 60%.
For “CAGCAGGCAGATAACCTC (sugars l3 d12 l3, PS)”, the target mRNA inhibition by setting is: (Human Neuronal Cell, 0.2 µM) -4%; (Human Neuronal Cell, 1 µM) 18%; (Human Neuronal Cell, 5 µM) 21%.
